≈ marks a conversion by molar mass, not a printed value. Where two headings read alike, the source gives them in different places.
Tests used:
Type in all cases: cell-based
[1] = tested on: Escherichia coli (14H114); test: minimum growth inhibitory concentration (MIC) method; conditions: E. coli 14H114, HIA medium, 37° C., 18 hours, sodium salts
Method: (§1) The antibacterial activities of the cephalosporins of this invention were measured using the sodium salts of the compounds obtained in Synthesis Examples 1 and 2. The procedure and the results are shown in Referential Example 1.
(§2) Carbenicillin sodium salt (CB-PC) and cephazoline sodium salt (CEZ) were used as controls.
(§3) The antibacterial activities of the test compounds against various Gram-positive and Gram-negative bacteria were determined in a customary manner by the minimum growth inhibitory concentration method (MIC method).
(§4) A commercially available heart infusion agar medium (to be abbreviated HIA medium) was used as an assay medium, and a commercially available trypto-soy bouillon medium (to be abbreviated TSB) was used as a medium for the growth of test bacterial strains.
(§5) The test compound was diluted with the melted HIA medium to 100 μg/ml as a maximum concentration, and then serially diluted double. The dilutions were poured into sterilized Petri dishes respectively and allowed to cool and solidify to prepare plates containing the test compound.
(§6) The test bacterial strain was cultivated at 37° C. for 18 to 24 hours in the TSB medium. The culture broth was diluted to 50 to 500 times with a freshly prepared TSB culture medium, and one platinum loopful of the dilution was inoculated in each of the plates containing the test compound. The plate was incubated at 37° C. for 18 hours, and the state of growth of the strain on the plate was observed, and the minimum growth inhibitory concentration (MIC) of the test compound was determined.

[2] = tested on: Pseudomonas aeruginosa (IFO-3901); test: as above; conditions: IFO3901, P. aeruginosa IFO-3901, HIA medium, 37° C., 18 hours, sodium salts
Method: as §1, §2, §3, §4, §5, §6

[3] = tested on: Pseudomonas aeruginosa (ATCC 10145); test: as above; conditions: ATCC10145, P. aeruginosa ATCC 10145, HIA medium, 37° C., 18 hours, sodium salts
Method: as §1, §2, §3, §4, §5, §6

Escherichia coli (NIHJ) = test: as above; conditions: E. coli NIHJ, HIA medium, 37° C., 18 hours, sodium salts
Method: as §1, §2, §3, §4, §5, §6

[4] = tested on: Bacillus cereus (IAM 1792); test: as above; conditions: IAM1792, HIA medium, 37° C., 18 hours, sodium salts
Method: as §1, §2, §3, §4, §5, §6

Proteus vulgaris (OX-19) = test: as above; conditions: read-out: Minimum growth inhibitory concentration
Method: as §1, §2, §3, §4, §5, §6

[5] = tested on: Enterobacter cloacae (D-49); test: as above; conditions: HIA medium, 37° C., 18 hours, sodium salts
Method: as §1, §2, §3, §4, §5, §6

[6] = tested on: Pseudomonas aeruginosa (S-1); test: as above; conditions: P. aeruginosa S-1, HIA medium, 37° C., 18 hours, sodium salts
Method: as §1, §2, §3, §4, §5, §6

[7] = tested on: Pseudomonas Maltophilia (F-6257); test: as above; conditions: Stenotrophomonas maltophilia, HIA medium, 37° C., 18 hours, sodium salts
Method: as §1, §2, §3, §4, §5, §6

[8] = tested on: Citrobacter freundii (F-34); test: as above; conditions: HIA medium, 37° C., 18 hours, sodium salts
Method: as §1, §2, §3, §4, §5, §6

[9] = tested on: Klebsiella pneumoniae (B-172); test: as above; conditions: K. pneumoniae B-172, HIA medium, 37° C., 18 hours, sodium salts
Method: as §1, §2, §3, §4, §5, §6

[10] = tested on: Salmonella enteritidis (KB-21); test: as above; conditions: Salmonella enterica, read-out: Minimum growth inhibitory concentration
Method: as §1, §2, §3, §4, §5, §6

[11] = tested on: Pseudomonas aeruginosa (F1629); test: as above; conditions: P. aeruginosa F1629, HIA medium, 37° C., 18 hours, sodium salts
Method: as §1, §2, §3, §4, §5, §6

[12] = tested on: Staphylococcus aureus (FDA 209P); test: as above; conditions: FDA209P, read-out: Minimum growth inhibitory concentration
Method: as §1, §2, §3, §4, §5, §6

[13] = tested on: Pseudomonas aeruginosa (718); test: as above; conditions: P. aeruginosa 718, HIA medium, 37° C., 18 hours, sodium salts
Method: as §1, §2, §3, §4, §5, §6

[14] = tested on: Enterobacter aerogenes (IFO 3320); test: as above; conditions: Klebsiella aerogenes, read-out: Minimum growth inhibitory concentration
Method: as §1, §2, §3, §4, §5, §6

Escherichia coli (26R03) = test: as above; conditions: E. coli 26R03, HIA medium, 37° C., 18 hours, sodium salts
Method: as §1, §2, §3, §4, §5, §6

[15] = tested on: Klebsiella pneumoniae (ATCC 10031); test: as above; conditions: read-out: Minimum growth inhibitory concentration
Method: as §1, §2, §3, §4, §5, §6

Proteus morganii (C-39) = test: as above; conditions: Morganella morganii, HIA medium, 37° C., 18 hours, sodium salts
Method: as §1, §2, §3, §4, §5, §6

[16] = tested on: Pseudomonas aeruginosa (NCTC 7244); test: minimum bactericidal concentration (MBC); conditions: NCTC7244, 18 h, subculture on HIA medium, 37° C.
Method: (§7) The compounds obtained in Synthesis Examples 1 and 2 were tested in the following manner.
(§8) A suspension of Pseudomonas aeruginosa (NCTC 7244) cultivated at 37° C. for 18 hours in a heart infusion broth medium (HIB medium) in a final amount of 10^5, 10^6 and 10^7 cells/ml in an HIB medium containing each of the test compounds which was obtained in the same way as in Referential Example 1 except that the maximum concentration of the test compound was 200 μg/ml. The bacterial strain was cultivated at 37° C. for 18 hours, and the turbidity of the culture broth was evaluated with the naked eye. The minimum concentration of the test compound at which no turbidity was noted was defined as MIC.
After the determination of MIC, one platinum loopful of each of the culture broths in various concentrations was taken out from the test tubes, and inoculated in a separately provided plate of an HIA medium not containing the test compound, and incubated at 37° C. for 18 hours. The growth of the bacterial strain was evaluated.

[17] = tested on: Pseudomonas aeruginosa (NCTC 7244); test: MIC in HIB medium at different inocula (turbidity); conditions: NCTC7244, 18 h, 37° C.
Method: as §7, §8

[18] = Proteus vulgaris OX-19, HIA medium, 37° C., 18 hours, sodium salts
[19] = Salmonella enteritidis KB-21, HIA medium, 37° C., 18 hours, sodium salts
[20] = S. aureus FDA 209P, HIA medium, 37° C., 18 hours, sodium salts
[21] = IFO3320, Enterobacter aerogenes IFO 3320, HIA medium, 37° C., 18 hours, sodium salts
[22] = ATCC10031, K. pneumoniae ATCC 10031, HIA medium, 37° C., 18 hours, sodium salts

| Structure (SMILES) | MIC [1] [µg/mL] | MIC [2] [µg/mL] | MIC [3] [µg/mL] | MIC (Escherichia coli (NIHJ)) [µg/mL] | MIC [4] [µg/mL] | MIC [5] [µg/mL] | MIC [6] [µg/mL] | MIC [7] [µg/mL] | MIC [8] [µg/mL] | MIC [9] [µg/mL] | MIC [11] [µg/mL] | MIC [13] [µg/mL] | MIC (Escherichia coli (26R03)) [µg/mL] | MIC (Proteus morganii (C-39)) [µg/mL] | MBC ([16]; inoculum 10^5 cells/ml) [µg/mL] | MBC ([16]; inoculum 10^6 cells/ml) [µg/mL] | MBC ([16]; inoculum 10^7 cells/ml) [µg/mL] | MIC ([17]; inoculum 10^5 cells/ml) [µg/mL] | MIC ([17]; inoculum 10^6 cells/ml) [µg/mL] | MIC ([17]; inoculum 10^7 cells/ml) [µg/mL] | other results |
| --- | --- | --- | --- | --- | --- | --- | --- | --- | --- | --- | --- | --- | --- | --- | --- | --- | --- | --- | --- | --- | --- |
| Cn1nnnc1SCC1=C(C(=O)O)N2C(=O)C(NC(=O)[C@H](NC(=O)c3cnc4c(c3O)C(=O)CCC4)c3ccccc3)C2SC1 (single isomer, unassigned) [Synthesis Example 1, 7-[D-(-)-α-(4-hydroxy-5-oxo-5,6,7,8-tetrahydroquinoline-3-carboxamide)phenylacetamido)-3-[[(1-methyl-1H-tetrazol-5-yl)thio]methyl]-Δ^3-cephem-4-carboxylic acid] | 6.25 | 12.5 | 12.5 | 0.78 | 25 | 6.25 | 1.56 | 3.13 | 0.78 | 0.78 | 6.25 | 12.5 | 1.56 | 3.13 | 12.5 (≈ 19.2 µM) | 12.5 (≈ 19.2 µM) | > 200 | 12.5 (≈ 19.2 µM) | 12.5 (≈ 19.2 µM) | 25 (≈ 38.4 µM) | MIC (Proteus vulgaris (OX-19); [18]): 1.56 µg/mL; MIC [10, 19]: 0.78 µg/mL; MIC [12, 20]: 1.56 µg/mL; MIC [14, 21]: 0.2 µg/mL; MIC [15, 22]: 0.2 µg/mL |
| Cn1nnnc1SCC1=C(C(=O)O)N2C(=O)C(NC(=O)[C@H](NC(=O)c3cnc4c(c3O)C(=O)CCC4)c3ccc(O)cc3)C2SC1 (single isomer, unassigned) [Synthesis Example 2, 7-[D-(-)-α-(4-hydroxy-5-oxo-5,6,7,8-tetrahydroquinoline-3-carboxamide)-α-(4-hydroxyphenyl)acetamido]-3-[[(1-methyl-1H-tetrazol-5-yl)thio]methyl]-Δ^3-cephem-4-carboxylic acid] | 6.25 | 12.5 | 12.5 | 0.78 | 12.5 | 3.13 | 1.56 | 6.25 | 0.39 | 0.78 | 3.13 | 12.5 | 0.78 | 3.13 | 6.25 (≈ 9.37 µM) | 12.5 (≈ 18.7 µM) | > 200 | 6.25 (≈ 9.37 µM) | 6.25 (≈ 9.37 µM) | 12.5 (≈ 18.7 µM) | MIC (Proteus vulgaris (OX-19); [18]): 0.78 µg/mL; MIC [10, 19]: 0.39 µg/mL; MIC [12, 20]: 1.56 µg/mL; MIC [14, 21]: 0.2 µg/mL; MIC [15, 22]: 0.39 µg/mL |
| CC1(C)S[C@@H]2[C@H](NC(=O)C(C(=O)O)c3ccccc3)C(=O)N2[C@H]1C(=O)O (stereo partly drawn) [CB-PC, disodium-α-carboxybenzyl penicillin, reference compound] | > 100 | 100 | > 100 | 6.25 | 100 | > 100 | 25 | 25 | 3.13 | 25 | > 100 | > 100 | 3.13 | 6.25 | 100 | 100 | > 200 | 50 | 100 | 200 | MIC (Proteus vulgaris (OX-19); [18]): 6.25 µg/mL; MIC ([10]; ENTERITIDIS, 18 h): 1.56 µg/mL; MIC ([12]; 18 h): 1.56 µg/mL; MIC ([14]; IFO3320, 18 h): 1.56 µg/mL; MIC [15, 22]: > 100 µg/mL |
| Cc1nnc(SCC2=C(C(=O)O)N3C(=O)[C@@H](NC(=O)Cn4cnnn4)[C@H]3SC2)s1 [CEZ, sodium 7-[1-(1H)-tetrazoylacetamido]-3-[2-(5-methyl-1,3,4-thiadiazoyl)-thiomethyl]-Δ^3, cephem-4-carboxylate, reference compound] | 6.25 | > 100 | > 100 | 3.13 | 100 | > 100 | > 100 | > 100 | 50 | 3.13 | > 100 | > 100 | 50 | > 100 | > 200 | > 200 | > 200 | > 200 | > 200 | > 200 | MIC (Proteus vulgaris (OX-19); Proteus vulgaris, 18 h): 1.56 µg/mL; MIC ([10]; ENTERITIDIS, 18 h): 1.56 µg/mL; MIC [12, 20]: 0.2 µg/mL; MIC [14, 21]: 3.13 µg/mL; MIC ([15]; ATCC10031, 18 h): 1.56 µg/mL |

From patent publication US4283398A, “Cephalosporins” (Mitsui Toatsu Chemicals, Inc., priority 1978, dated 1981)
